{
  "source": "ChEMBL document CHEMBL5465560",
  "about": "“Selectivity Literature for EUbOPEN Chemogenomic Library” (2024)",
  "key": {"[1]": {"target": "Serine/threonine-protein kinase 38-like (Homo sapiens) (UniProt Q9Y2H1)", "test": "Selectivity interaction (Kinase panel (KiNativ target engagement assay in Jurkat cells)) EUB0001635a STK38L", "type": "cell-based", "details": "Selectivity number of off-targets 0.0, Selectivity number of targets 233.0, Source Knowledge https://www.sciencedirect.com/science/article/pii/S2451945619300674?via%3Dihub, at 1 µM"}, "[2]": {"target": "Mitogen-activated protein kinase kinase kinase 10 (Homo sapiens) (UniProt Q02779)", "sequence (Q02779 whole entry, looked up)": "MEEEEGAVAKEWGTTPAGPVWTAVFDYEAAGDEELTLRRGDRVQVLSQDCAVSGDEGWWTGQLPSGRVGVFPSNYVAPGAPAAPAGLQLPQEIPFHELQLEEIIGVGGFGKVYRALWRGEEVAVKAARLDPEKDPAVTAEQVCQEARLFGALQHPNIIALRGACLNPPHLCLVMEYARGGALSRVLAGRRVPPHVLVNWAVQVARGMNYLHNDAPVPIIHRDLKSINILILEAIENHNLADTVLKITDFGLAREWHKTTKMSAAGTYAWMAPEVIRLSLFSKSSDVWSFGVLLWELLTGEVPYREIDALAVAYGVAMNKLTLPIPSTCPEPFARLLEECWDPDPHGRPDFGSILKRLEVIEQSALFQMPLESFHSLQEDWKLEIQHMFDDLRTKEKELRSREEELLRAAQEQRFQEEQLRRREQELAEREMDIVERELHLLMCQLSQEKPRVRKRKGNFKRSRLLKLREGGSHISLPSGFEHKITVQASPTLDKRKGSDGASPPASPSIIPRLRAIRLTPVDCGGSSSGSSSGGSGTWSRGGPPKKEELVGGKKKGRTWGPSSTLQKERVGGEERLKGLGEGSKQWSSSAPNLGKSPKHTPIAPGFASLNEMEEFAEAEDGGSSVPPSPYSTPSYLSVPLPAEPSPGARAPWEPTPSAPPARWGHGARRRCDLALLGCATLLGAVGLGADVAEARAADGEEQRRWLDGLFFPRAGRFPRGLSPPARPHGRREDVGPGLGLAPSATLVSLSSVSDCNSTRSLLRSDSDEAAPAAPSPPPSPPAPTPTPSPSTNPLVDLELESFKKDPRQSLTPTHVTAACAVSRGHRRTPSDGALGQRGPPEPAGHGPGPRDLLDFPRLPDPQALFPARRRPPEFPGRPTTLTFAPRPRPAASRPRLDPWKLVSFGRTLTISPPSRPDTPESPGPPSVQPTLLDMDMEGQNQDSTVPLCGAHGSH", "test": "Selectivity interaction (KinomeScan (DiscoverX)) EUB0000045b MAP3K10"}, "[3]": {"target": "Serine/threonine-protein kinase PLK1 (Homo sapiens, UniProt P53350)", "test": "Selectivity interaction (KinomeScan (DiscoverX)) EUB0000666a PLK1", "details": "at 10 µM"}, "[4]": {"target": "Insulin receptor-related protein (Homo sapiens) (UniProt P14616)", "sequence (P14616 27-742 limits assumed)": "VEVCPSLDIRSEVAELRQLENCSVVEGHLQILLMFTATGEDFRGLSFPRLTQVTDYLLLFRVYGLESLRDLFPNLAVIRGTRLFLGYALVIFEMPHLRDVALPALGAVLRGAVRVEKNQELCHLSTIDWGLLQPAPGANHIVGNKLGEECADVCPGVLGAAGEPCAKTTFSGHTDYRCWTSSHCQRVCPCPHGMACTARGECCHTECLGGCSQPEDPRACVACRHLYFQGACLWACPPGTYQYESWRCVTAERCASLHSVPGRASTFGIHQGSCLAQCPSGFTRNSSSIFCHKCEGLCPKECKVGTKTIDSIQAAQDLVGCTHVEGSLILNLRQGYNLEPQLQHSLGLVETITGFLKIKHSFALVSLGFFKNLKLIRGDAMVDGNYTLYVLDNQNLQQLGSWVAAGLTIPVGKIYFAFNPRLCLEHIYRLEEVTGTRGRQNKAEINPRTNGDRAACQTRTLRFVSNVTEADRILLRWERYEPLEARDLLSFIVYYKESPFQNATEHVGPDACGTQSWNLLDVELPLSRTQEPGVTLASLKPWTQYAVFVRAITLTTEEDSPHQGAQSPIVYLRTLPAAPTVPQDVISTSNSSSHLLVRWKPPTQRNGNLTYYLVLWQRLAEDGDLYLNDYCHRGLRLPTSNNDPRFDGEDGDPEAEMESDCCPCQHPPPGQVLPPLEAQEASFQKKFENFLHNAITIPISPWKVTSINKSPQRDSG", "sequence (P14616 747-1297 limits assumed)": "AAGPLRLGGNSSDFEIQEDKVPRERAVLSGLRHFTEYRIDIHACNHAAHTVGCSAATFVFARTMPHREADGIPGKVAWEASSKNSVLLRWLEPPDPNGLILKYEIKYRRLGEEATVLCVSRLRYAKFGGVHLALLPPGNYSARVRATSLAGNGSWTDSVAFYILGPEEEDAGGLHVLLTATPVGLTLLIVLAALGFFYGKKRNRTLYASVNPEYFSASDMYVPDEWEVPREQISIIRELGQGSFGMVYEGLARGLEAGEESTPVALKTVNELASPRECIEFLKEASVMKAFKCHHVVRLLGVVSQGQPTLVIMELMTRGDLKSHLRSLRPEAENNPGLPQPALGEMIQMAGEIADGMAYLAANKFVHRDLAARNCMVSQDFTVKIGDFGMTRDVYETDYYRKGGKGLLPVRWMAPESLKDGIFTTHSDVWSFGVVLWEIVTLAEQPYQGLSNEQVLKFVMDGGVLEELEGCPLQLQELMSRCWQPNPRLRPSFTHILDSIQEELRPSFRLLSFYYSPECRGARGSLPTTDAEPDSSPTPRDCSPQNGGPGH", "test": "Selectivity interaction (Kinase screening (Nanosyn)) EUB0000604a INSRR"}, "Progesterone receptor": {"target": "Progesterone receptor (Homo sapiens, UniProt P06401)", "sequence (P06401 whole entry)": "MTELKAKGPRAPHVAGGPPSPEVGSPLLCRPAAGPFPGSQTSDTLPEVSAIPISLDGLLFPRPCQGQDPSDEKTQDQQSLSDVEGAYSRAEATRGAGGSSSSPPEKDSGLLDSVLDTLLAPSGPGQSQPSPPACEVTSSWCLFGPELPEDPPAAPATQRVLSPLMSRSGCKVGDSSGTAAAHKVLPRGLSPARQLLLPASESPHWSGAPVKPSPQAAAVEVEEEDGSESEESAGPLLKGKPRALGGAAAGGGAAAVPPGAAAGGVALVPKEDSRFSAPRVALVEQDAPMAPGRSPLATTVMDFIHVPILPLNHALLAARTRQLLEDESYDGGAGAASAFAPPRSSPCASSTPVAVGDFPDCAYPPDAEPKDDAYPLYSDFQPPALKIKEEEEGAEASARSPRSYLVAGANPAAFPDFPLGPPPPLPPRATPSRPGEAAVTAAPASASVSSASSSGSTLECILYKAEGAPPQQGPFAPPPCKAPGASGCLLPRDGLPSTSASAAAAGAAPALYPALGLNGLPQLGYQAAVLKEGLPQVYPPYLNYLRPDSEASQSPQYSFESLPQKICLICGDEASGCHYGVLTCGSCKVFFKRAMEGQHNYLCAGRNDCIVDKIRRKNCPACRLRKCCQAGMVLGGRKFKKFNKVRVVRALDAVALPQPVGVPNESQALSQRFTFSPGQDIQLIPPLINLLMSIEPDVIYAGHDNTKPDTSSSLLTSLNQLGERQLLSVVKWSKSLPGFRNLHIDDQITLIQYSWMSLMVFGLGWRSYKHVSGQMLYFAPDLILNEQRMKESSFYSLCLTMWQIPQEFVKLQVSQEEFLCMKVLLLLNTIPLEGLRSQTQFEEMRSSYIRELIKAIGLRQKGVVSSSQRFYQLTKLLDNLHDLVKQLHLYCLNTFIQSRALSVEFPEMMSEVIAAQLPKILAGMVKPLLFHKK", "test": "Selectivity interaction (Progesteron receptor agonist/antagonist FRET assay, human recombinant) EUB0000877a PGR"}, "[5]": {"target": "T1, Aurora kinase A (Homo sapiens) (UniProt O14965)", "T1 sequence (whole entry)": "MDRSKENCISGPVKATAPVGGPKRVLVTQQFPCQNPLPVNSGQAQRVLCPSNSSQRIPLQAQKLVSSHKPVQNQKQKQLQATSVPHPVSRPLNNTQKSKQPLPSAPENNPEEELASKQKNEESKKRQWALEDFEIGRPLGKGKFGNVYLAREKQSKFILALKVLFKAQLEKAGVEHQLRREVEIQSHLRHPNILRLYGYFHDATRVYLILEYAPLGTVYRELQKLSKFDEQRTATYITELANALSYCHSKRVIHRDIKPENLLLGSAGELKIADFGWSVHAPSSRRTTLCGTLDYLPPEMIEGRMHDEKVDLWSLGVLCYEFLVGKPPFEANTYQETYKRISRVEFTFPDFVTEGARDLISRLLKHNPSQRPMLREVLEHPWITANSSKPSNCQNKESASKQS", "test": "Selectivity interaction (KinaseProfiler screening (Millipore)) EUB0000601a STK6", "details": "at 3 µM"}, "[6]": {"target": "T2, Phosphatidylinositol 5-phosphate 4-kinase type-2 gamma (Homo sapiens) (UniProt Q8TBX8)", "T2 sequence (whole entry)": "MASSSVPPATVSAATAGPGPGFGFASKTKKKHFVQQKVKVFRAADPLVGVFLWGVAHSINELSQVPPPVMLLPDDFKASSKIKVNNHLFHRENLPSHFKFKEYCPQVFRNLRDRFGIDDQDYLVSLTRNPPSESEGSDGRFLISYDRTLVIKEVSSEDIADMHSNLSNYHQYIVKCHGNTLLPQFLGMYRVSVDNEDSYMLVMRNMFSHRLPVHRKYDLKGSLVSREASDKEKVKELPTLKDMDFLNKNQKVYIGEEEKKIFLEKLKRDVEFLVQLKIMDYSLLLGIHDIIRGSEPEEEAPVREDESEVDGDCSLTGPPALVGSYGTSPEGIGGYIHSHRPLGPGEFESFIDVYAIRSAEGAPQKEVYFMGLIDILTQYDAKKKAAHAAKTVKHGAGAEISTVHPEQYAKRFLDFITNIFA", "test": "Selectivity interaction (KinomeScan (DiscoverX)) EUB0000607a PIP4K2C", "details": "at 10 µM"}, "[7]": {"target": "Mitogen-activated protein kinase 9 (Homo sapiens, UniProt P45984)", "sequence (P45984 whole entry, looked up)": "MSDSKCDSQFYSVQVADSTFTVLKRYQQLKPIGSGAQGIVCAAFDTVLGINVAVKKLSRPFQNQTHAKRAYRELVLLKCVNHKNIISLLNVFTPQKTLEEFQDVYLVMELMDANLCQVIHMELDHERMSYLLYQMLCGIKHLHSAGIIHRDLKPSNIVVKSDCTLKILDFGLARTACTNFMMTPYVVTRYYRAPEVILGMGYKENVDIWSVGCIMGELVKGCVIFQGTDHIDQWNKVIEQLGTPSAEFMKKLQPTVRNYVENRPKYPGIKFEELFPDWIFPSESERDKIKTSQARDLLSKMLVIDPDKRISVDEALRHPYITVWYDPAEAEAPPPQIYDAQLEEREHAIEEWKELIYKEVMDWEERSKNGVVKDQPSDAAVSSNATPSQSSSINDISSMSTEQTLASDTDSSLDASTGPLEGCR", "test": "Selectivity interaction (ActivX KiNativ screen (kinase selectivity in THP-1 cell lysates)) EUB0000639a MAPK9", "type": "subcellular", "details": "lysate, at 0.01 µM"}, "[8]": {"target": "Tyrosine-protein kinase receptor Tie-1 (Homo sapiens) (UniProt P35590)", "sequence (P35590 whole entry)": "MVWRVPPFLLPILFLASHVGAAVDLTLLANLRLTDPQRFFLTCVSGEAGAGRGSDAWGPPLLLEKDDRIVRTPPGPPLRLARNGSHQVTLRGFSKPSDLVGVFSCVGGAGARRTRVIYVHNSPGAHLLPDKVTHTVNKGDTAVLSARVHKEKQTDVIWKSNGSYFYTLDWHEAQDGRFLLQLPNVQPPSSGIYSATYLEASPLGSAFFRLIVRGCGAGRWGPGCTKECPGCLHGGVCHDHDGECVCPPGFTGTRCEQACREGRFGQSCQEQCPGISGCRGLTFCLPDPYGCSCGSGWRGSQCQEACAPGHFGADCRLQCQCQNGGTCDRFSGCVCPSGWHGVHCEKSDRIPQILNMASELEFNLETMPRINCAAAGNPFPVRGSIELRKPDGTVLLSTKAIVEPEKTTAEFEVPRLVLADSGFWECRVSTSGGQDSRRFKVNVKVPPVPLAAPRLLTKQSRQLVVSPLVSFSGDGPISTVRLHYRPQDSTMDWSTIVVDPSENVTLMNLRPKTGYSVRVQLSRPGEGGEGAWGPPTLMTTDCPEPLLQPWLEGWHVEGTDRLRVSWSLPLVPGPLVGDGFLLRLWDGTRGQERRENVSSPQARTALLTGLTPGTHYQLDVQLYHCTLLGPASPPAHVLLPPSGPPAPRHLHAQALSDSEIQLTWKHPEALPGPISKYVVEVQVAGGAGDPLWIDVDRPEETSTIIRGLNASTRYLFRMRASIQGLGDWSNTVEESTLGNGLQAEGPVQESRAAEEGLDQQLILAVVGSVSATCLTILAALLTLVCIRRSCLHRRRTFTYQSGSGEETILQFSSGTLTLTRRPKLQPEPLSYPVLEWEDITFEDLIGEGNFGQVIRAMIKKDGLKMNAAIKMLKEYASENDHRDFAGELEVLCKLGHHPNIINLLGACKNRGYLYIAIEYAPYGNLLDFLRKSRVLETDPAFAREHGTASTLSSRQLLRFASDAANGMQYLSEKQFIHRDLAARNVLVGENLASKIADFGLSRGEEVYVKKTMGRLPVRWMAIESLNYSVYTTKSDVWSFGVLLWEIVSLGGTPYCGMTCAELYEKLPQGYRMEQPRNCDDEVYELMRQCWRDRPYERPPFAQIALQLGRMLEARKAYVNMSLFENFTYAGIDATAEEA", "test": "Selectivity interaction (KinomeScan (DiscoverX)) EUB0000699a TIE1", "details": "at 10 µM"}, "[9]": {"target": "T3, Mitogen-activated protein kinase kinase kinase 6 (Homo sapiens) (UniProt O95382)", "T3 sequence (whole entry)": "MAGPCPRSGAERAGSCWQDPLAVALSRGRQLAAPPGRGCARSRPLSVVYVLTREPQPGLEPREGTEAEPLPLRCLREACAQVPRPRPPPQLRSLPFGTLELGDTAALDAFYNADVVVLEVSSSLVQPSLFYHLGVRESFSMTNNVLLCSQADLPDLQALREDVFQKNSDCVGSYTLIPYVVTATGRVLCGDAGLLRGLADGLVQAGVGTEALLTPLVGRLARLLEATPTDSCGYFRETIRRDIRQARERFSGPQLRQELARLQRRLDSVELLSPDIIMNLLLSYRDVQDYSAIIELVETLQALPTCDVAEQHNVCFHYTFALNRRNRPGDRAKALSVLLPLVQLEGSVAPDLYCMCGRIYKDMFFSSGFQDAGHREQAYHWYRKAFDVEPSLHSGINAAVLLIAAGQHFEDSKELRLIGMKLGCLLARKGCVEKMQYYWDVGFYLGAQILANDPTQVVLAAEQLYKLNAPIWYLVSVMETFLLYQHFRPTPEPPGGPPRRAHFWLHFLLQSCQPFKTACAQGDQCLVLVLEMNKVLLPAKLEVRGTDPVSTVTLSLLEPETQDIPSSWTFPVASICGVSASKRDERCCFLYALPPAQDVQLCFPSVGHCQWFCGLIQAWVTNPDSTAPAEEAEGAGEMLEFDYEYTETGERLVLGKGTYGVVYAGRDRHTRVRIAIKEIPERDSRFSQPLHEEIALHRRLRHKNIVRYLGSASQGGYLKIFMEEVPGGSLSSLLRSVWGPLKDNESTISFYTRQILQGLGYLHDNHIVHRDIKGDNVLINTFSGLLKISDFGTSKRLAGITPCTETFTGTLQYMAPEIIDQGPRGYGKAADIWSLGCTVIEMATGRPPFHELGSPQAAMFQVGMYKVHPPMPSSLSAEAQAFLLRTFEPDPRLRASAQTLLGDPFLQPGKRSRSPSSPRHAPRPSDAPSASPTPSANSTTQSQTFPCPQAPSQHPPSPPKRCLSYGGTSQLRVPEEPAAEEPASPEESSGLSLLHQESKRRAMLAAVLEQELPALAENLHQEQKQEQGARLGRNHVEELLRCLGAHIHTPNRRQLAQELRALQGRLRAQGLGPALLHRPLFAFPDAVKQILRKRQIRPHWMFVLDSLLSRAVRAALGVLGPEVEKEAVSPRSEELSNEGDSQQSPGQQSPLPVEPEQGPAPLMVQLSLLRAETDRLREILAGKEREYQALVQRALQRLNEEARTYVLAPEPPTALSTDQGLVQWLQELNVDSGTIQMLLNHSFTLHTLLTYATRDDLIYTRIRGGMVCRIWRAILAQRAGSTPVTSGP", "test": "Selectivity interaction (KinomeScan (DiscoverX)) EUB0000092b MAP3K6", "details": "at 10 µM"}, "[10]": {"target": "Mitogen-activated protein kinase kinase kinase 14 (Homo sapiens) (UniProt Q99558)", "test": "Selectivity interaction (Ambit KINOMEscan and KiNATiv profiling in Jurkat cells) EUB0000090b MAP3K14", "type": "cell-based", "details": "at 1 µM"}, "[11]": {"target": "Insulin receptor-related protein (Homo sapiens) (UniProt P14616)", "test": "Selectivity interaction (Ambit KINOMEscan and KiNATiv profiling in Jurkat cells) EUB0000090b INSRR", "type": "cell-based", "details": "at 1 µM"}},
  "data": [
    {"smiles": "C=CC(=O)Nc1ccc(C(=O)Nc2[nH]nc3c2CN(C(=O)N[C@H](CN(C)C)c2ccccc2)C3(C)C)cc1", "values": [
      {"measurement": "% of engagement", "setting": "[1]", "value": -0.3, "unit": "%"}
    ]},
    {"smiles": "C=CC(=O)Nc1cc(-n2c(=O)ccc3cnc4ccc(-c5ccc(NS(C)(=O)=O)cc5)cc4c32)ccc1C", "values": [
      {"measurement": "% of control", "setting": "[2]; at 1 µM", "value": 100, "unit": "%"},
      {"measurement": "% of control", "setting": "[2]; at 10 µM", "value": 100, "unit": "%"}
    ]},
    {"smiles": "O=C(NOC[C@H](O)CO)c1ccc(F)c(F)c1Nc1ccc(I)cc1F", "values": [
      {"measurement": "% of control", "setting": "[3]", "value": 72, "unit": "%"}
    ]},
    {"smiles": "Cc1cnc(Nc2ccc(F)cc2Cl)nc1-c1c[nH]c(C(=O)N[C@H](CO)c2cccc(Cl)c2)c1", "values": [
      {"measurement": "% of inhibition", "setting": "[4]", "value": 0, "unit": "%"}
    ]},
    {"smiles": "CCC(=O)N1CC[C@H](Nc2ncnc3c2CN(c2cnc(OC)c(C(F)(F)F)c2)CC3)C1", "note": "[LENIOLISIB]", "values": [
      {"measurement": "IC50", "setting": "Progesterone receptor", "value": "> 30", "unit": "µM"}
    ]},
    {"smiles": "CCc1cc(Nc2nccc(-c3c(-c4ccc(OC)c(C(=O)Nc5c(F)cccc5F)c4)nc4ccccn34)n2)c(OC)cc1N1CCC(N2CCN(S(C)(=O)=O)CC2)CC1", "values": [
      {"measurement": "% of inhibition", "setting": "[5]", "value": 76, "unit": "%"}
    ]},
    {"smiles": "CNC(=O)Nc1ccc(-c2nc(N3CC4CCC(C3)O4)c3cnn(C4CCC5(CC4)OCCO5)c3n2)cc1", "values": [
      {"measurement": "% of control", "setting": "[6]", "value": 100, "unit": "%"}
    ]},
    {"smiles": "CC[C@@H]1[C@H](F)C(=O)N[C@@H]1COc1nccc2cc(C(N)=O)c(OC)cc12", "note": "[ZIMLOVISERTIB]", "values": [
      {"measurement": "% of inhibition", "setting": "[7]", "value": -10, "unit": "%"}
    ]},
    {"smiles": "CCN(CC)CCCCNc1ncc2cc(-c3cc(OC)cc(OC)c3)c(NC(=O)NC(C)(C)C)nc2n1", "values": [
      {"measurement": "% of control", "setting": "[8]", "value": 12, "unit": "%"}
    ]},
    {"smiles": "CCC(=O)N1CCN(c2ccc(-n3c(=O)ccc4cnc5ccc(-c6cnc7ccccc7c6)cc5c43)cc2C(F)(F)F)CC1", "values": [
      {"measurement": "% of control", "setting": "[9]", "value": 100, "unit": "%"}
    ]},
    {"smiles": "CN(C)C/C=C/C(=O)Nc1ccc(C(=O)N2CCCC(Nc3ncc(Cl)c(-c4c[nH]c5ccccc45)n3)C2)cc1", "note": "(stereo not drawn)", "values": [
      {"measurement": "% of control", "setting": "[10]", "value": 100, "unit": "%"},
      {"measurement": "% of control", "setting": "[11]", "value": 100, "unit": "%"}
    ]}
  ]
}
